Reference: patent US20080009418A1, “Selective Inhibitors” (Alchemia LTD., priority 2004, published 2008)

Legend:
[1] = target: T1, Human δ-opioid (DOP) (Homo sapiens, UniProt P41143); experiment: Radioligand binding, human δ-opioid (DOP) membranes, FlashPlate, [3H]-Bremazocine; details: compound at 10 μM; human δ-opioid (DOP) membranes
T1 construct: purchased Perkin Elmer Biosignal
Procedure, shortened: (§1)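 Cloned human receptor membranes were coated onto FlashPlate wells and incubated with radioligand and compound (added from a 0.5 mM DMSO daughter plate) for 1 hour at room temperature in the dark. Scintillation counting gave percent inhibition, with DMSO defining total and reference ligand defining non-specific binding.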

[2] = target: T2, Human κ-Opioid (KOP) (Homo sapiens, UniProt P41145); experiment: Radioligand binding, human κ-opioid (KOP) membranes, filtration, [3H]-Diprenorphine; details: compound at 10 μM; human κ-opioid (KOP) membranes
T2 construct: purchased Perkin Elmer Biosignal
T2 sequence (P41145 whole entry): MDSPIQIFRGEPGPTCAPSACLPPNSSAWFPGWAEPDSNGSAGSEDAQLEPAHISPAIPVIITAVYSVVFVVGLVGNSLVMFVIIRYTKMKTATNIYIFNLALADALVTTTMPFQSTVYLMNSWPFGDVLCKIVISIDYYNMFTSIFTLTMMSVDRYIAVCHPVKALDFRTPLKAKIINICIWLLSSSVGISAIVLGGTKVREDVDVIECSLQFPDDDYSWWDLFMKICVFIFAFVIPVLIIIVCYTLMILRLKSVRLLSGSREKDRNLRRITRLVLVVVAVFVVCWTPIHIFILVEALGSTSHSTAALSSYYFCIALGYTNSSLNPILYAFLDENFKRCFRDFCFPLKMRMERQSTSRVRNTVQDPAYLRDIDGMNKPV
Procedure, shortened: (§2)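 Membranes from cloned human receptors were incubated with compound and radioligand for 1 hour at room temperature. Bound ligand was collected on 0.3% PEI-soaked filters, washed with cold 50 mM Tris-HCl pH 7.4, and counted by scintillation. Percent inhibition was computed against DMSO totals and reference-ligand nonspecific wells.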

[3] = target: T3, Human Melanocortin (MC3) (Homo sapiens, UniProt P41968); experiment: Radioligand binding, human melanocortin MC3 membranes, FlashPlate, [125I]-NDP-αMSH; details: compound at 10 μM; human melanocortin MC3 membranes
T3 construct: purchased Perkin Elmer Biosignal
T3 sequence (P41968 whole entry): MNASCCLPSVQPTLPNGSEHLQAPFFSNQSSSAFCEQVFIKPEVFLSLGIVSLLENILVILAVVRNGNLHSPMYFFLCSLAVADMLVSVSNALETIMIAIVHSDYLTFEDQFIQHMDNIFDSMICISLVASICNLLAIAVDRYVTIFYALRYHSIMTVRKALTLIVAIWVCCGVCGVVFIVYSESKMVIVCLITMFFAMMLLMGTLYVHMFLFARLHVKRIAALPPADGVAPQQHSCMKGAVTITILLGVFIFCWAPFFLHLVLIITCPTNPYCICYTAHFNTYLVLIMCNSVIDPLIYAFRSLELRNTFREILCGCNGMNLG
Procedure, shortened: as §1

[4] = target: T4, Human Melanocortin (MC4) (Homo sapiens, UniProt P32245); experiment: Radioligand binding, human melanocortin MC4 membranes, FlashPlate, [125I]-NDP-αMSH; details: compound at 10 μM; human melanocortin MC4 membranes
T4 construct: purchased Perkin Elmer Biosignal
T4 sequence (P32245 whole entry): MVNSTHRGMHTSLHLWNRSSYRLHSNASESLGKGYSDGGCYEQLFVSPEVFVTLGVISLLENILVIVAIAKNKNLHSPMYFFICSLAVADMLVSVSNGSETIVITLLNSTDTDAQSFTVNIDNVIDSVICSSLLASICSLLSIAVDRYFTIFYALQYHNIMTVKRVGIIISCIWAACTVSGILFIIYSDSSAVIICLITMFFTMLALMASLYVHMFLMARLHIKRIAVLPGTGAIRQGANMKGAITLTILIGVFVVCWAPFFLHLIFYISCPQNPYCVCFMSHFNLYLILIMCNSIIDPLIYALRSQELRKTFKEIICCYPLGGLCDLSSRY
Procedure, shortened: as §1

[5] = target: T5, Human melanocortin (MC5) (Homo sapiens, UniProt P33032); experiment: Radioligand binding, human melanocortin MC5 membranes, FlashPlate, [125I]-NDP-αMSH; details: compound at 10 μM; human melanocortin MC5 membranes
T5 construct: purchased Perkin Elmer Biosignal
T5 sequence (P33032 whole entry): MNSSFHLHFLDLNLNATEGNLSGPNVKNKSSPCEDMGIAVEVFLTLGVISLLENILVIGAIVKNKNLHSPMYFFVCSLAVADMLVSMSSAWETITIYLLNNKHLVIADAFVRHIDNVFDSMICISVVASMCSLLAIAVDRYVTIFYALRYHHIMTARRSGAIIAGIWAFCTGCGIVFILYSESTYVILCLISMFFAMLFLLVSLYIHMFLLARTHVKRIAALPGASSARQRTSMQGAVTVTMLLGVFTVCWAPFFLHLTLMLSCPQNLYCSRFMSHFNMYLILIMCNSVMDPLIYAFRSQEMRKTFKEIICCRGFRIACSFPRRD
Procedure, shortened: as §1

[6] = target: T6, Human melanin-concentrating hormone (MCH1) (Homo sapiens, UniProt Q99705); experiment: Radioligand binding, human melanin-concentrating hormone MCH1 membranes, FlashPlate, [125I]-S36057; details: compound at 10 μM; human MCH1 membranes
T6 construct: purchased Perkin Elmer Biosignal
T6 sequence (Q99705 whole entry): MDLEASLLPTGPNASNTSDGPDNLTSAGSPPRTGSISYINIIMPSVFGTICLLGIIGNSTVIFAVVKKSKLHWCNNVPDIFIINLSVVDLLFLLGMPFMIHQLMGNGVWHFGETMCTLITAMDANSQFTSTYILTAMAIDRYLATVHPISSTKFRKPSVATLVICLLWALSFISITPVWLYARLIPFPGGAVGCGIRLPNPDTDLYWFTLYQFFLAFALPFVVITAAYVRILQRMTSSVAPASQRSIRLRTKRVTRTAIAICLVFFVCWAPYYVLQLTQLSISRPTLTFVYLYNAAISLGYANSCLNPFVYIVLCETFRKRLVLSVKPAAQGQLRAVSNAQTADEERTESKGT
Procedure, shortened: as §1

[7] = target: T7, Human μ-opioid (MOP) (Homo sapiens, UniProt P35372); experiment: Radioligand binding, human μ-opioid (MOP) membranes, FlashPlate, [3H]-Naloxone; details: compound at 10 μM; human μ-opioid (MOP) membranes
T7 construct: purchased Perkin Elmer Biosignal
T7 sequence (P35372 whole entry): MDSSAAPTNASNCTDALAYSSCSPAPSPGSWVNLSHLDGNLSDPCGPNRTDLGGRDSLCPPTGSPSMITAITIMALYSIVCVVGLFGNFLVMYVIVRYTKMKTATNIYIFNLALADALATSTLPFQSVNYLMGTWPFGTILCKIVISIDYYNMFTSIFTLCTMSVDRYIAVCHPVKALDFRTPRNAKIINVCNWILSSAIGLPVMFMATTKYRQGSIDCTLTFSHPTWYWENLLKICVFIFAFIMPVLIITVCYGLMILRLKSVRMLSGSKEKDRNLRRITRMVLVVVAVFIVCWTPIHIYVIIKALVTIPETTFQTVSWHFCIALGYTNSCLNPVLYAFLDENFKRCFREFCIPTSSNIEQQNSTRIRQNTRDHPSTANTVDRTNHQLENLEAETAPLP
Procedure, shortened: as §1

[8] = target: T8, Human neurokinin (NK1) (Homo sapiens, UniProt P25103); experiment: Radioligand binding, human neurokinin NK1 membranes, filtration, [125I]-Substance P; details: compound at 10 μM; human neurokinin NK1 membranes
T8 construct: purchased Perkin Elmer Biosignal
T8 sequence (P25103 whole entry): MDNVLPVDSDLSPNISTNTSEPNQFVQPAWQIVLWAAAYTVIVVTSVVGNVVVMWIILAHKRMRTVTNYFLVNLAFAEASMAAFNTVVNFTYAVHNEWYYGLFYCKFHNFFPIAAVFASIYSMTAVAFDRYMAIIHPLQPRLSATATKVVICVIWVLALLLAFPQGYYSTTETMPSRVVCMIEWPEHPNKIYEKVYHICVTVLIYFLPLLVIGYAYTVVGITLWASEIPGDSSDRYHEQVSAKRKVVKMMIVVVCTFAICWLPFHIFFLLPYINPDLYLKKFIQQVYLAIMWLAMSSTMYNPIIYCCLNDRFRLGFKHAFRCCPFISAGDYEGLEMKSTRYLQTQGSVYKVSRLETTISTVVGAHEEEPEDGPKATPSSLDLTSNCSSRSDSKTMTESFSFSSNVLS
Procedure, shortened: as §2

[9] = target: T9, Human neuropeptide Y (NPY-Y1) (Homo sapiens, UniProt P25929); experiment: Radioligand binding, human neuropeptide Y NPY-Y1 membranes, FlashPlate, [125I]-PYY; details: compound at 10 μM; human NPY-Y1 membranes
T9 construct: purchased Perkin Elmer Biosignal
T9 sequence (P25929 1-384): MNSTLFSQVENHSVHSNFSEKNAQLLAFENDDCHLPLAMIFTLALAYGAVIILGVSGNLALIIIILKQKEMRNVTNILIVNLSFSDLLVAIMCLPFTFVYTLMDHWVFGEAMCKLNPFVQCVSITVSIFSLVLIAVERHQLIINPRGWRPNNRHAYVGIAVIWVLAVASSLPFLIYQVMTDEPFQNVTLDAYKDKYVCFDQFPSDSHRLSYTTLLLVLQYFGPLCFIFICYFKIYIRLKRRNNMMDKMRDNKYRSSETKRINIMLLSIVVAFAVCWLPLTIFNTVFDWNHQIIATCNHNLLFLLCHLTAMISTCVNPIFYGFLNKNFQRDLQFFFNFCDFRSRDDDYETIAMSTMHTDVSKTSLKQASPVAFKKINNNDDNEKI
Procedure, shortened: as §1

[10] = target: T10, Human opioid (ORL1) (Homo sapiens, UniProt P41146); experiment: Radioligand binding, human opioid ORL1 membranes, FlashPlate, [125I]-Nociceptin; details: compound at 10 μM; human ORL1 membranes
T10 construct: purchased Perkin Elmer Biosignal
T10 sequence (P41146 whole entry): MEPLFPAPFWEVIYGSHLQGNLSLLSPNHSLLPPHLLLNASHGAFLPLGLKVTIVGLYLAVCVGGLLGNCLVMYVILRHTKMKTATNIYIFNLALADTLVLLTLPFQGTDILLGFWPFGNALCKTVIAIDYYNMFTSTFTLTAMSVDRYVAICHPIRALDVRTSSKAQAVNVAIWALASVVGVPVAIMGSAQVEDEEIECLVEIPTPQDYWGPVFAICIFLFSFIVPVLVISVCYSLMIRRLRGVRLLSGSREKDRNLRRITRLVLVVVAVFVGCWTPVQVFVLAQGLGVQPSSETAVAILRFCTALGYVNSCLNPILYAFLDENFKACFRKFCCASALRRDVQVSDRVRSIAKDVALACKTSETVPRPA
Procedure, shortened: as §1

[11] = target: T11, Mouse urotensin (mUR2) (Mus musculus, UniProt Q8VIH9); experiment: Radioligand binding, mouse urotensin mUR2 membranes, FlashPlate, [125I]-Urotensin II; details: compound at 10 μM; mouse urotensin mUR2 membranes
T11 construct: purchased Perkin Elmer Biosignal
T11 sequence (Q8VIH9 1-385): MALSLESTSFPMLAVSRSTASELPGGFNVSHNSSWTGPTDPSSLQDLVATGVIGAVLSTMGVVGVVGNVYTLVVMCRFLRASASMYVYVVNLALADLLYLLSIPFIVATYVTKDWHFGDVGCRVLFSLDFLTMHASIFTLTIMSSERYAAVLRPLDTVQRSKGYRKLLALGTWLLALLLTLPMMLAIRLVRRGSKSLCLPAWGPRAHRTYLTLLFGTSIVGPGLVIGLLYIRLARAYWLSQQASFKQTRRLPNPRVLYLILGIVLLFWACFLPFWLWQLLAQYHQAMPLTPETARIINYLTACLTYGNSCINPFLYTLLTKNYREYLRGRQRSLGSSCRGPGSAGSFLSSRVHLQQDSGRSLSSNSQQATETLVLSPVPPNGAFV
Procedure, shortened: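 Cloned mouse urotensin (mUR2) receptor membranes from Perkin Elmer Biosignal were immobilized in FlashPlate microplates using a proprietary coating. Each well got 19.5 μl buffer, then 0.5 μl of DMSO, reference ligand, or compound. Adding 5 μl of [125I]-Urotensin II, diluted to 5× final concentration in binding buffer, started binding. Plates were sealed with TopSeal-A and incubated 1 hour at room temperature in the dark. Wells were counted for 30 seconds each on a TopCount after a 60-second delay, and percentage inhibition was calculated.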

T1 sequence (P41143 whole entry): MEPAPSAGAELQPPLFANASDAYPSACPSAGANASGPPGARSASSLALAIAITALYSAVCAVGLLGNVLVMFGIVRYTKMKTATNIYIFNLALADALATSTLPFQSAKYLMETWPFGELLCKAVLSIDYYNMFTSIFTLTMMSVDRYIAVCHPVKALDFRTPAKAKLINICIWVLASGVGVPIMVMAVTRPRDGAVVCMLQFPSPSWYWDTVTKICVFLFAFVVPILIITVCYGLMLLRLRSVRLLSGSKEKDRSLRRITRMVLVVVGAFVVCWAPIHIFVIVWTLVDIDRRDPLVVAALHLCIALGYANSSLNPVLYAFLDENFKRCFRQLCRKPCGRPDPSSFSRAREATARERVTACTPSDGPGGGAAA

SMILES | A1 radioligand binding inhibition [1] | A2 radioligand binding inhibition [2] | A3 radioligand binding inhibition [3] | A4 radioligand binding inhibition [4] | A5 radioligand binding inhibition [5] | A6 radioligand binding inhibition [6] | A7 radioligand binding inhibition [7] | A8 radioligand binding inhibition [8] | A9 radioligand binding inhibition [9] | A10 radioligand binding inhibition [10] | A11 radioligand binding inhibition [11]
CO[C@H]1[C@H](O)[C@@H](COCc2ccc(-c3ccccc3)cc2)OC(OCc2ccc(-c3ccccc3)cc2)[C@@H]1NC(=O)CCCNC(=N)N (stereo partly drawn) [compound 54] | − (“−” indicates less than 50% inhibition at 10 μM) | − (“−” indicates less than 50% inhibition at 10 μM) | + (“+” indicates greater than 50% inhibition at 10 μM) | + (“+” indicates greater than 50% inhibition at 10 μM) | + (“+” indicates greater than 50% inhibition at 10 μM) | + (“+” indicates greater than 50% inhibition at 10 μM) | + (“+” indicates greater than 50% inhibition at 10 μM) | + (“+” indicates greater than 50% inhibition at 10 μM) | − (“−” indicates less than 50% inhibition at 10 μM) | + (“+” indicates greater than 50% inhibition at 10 μM) | − (“−” indicates less than 50% inhibition at 10 μM)
CO[C@H]1[C@H](O)[C@@H](COCc2ccc3ccccc3c2)OC(OCc2ccc(-c3ccccc3)cc2)[C@@H]1NC(=O)CNC(=N)N (stereo partly drawn) [compound 55] | − (“−” indicates less than 50% inhibition at 10 μM) | + (“+” indicates greater than 50% inhibition at 10 μM) | + (“+” indicates greater than 50% inhibition at 10 μM) | + (“+” indicates greater than 50% inhibition at 10 μM) | + (“+” indicates greater than 50% inhibition at 10 μM) | + (“+” indicates greater than 50% inhibition at 10 μM) | + (“+” indicates greater than 50% inhibition at 10 μM) | + (“+” indicates greater than 50% inhibition at 10 μM) | − (“−” indicates less than 50% inhibition at 10 μM) | + (“+” indicates greater than 50% inhibition at 10 μM) | − (“−” indicates less than 50% inhibition at 10 μM)
CO[C@H]1[C@H](O)[C@@H](COCc2ccc3ccccc3c2)OC(OCc2ccc(-c3ccccc3)cc2)[C@@H]1NC(=O)CCNC(=N)N (stereo partly drawn) [compound 56] | − (“−” indicates less than 50% inhibition at 10 μM) | − (“−” indicates less than 50% inhibition at 10 μM) | − (“−” indicates less than 50% inhibition at 10 μM) | − (“−” indicates less than 50% inhibition at 10 μM) | + (“+” indicates greater than 50% inhibition at 10 μM) | − (“−” indicates less than 50% inhibition at 10 μM) | + (“+” indicates greater than 50% inhibition at 10 μM) | + (“+” indicates greater than 50% inhibition at 10 μM) | − (“−” indicates less than 50% inhibition at 10 μM) | − (“−” indicates less than 50% inhibition at 10 μM) | − (“−” indicates less than 50% inhibition at 10 μM)
